Laboratory results published in patent US8822697B2, “Paramagnetic polynuclear metal complex having high self-relaxation rate, preparation method thereof, and contrast medium containing same” (Kyungpook National University Industry-Academic Cooperation …, priority 2009, dated 2014).

Tests used:
[1] = Stability constant and pM value for copper; format: physicochemical; conditions: for {log KCuL(pH 7.4)}: 25° C., μ = 0.10M (KCl); for pCu: pM = −log[Mn+] free at pH 7.4, [Mn+] total = 1 μmol/dm3, [L] total = 1.1 μmol/dm3; for [CuL]/[Cu][L]: stability constant, log K (25° C., μ = 0.10M (KCl))
Text: (§1) The stability constant (KML) can be defined by the equation of KML=[ML]/[M][L], wherein M is Gd, Ca, Zn, Cu, and L indicates a ligand.
(§2) The pM value can be defined by the equation of pM=−log [Mn^+] at pH=7.4.
[M]=1.0 μmol/dm^3, [L]=1.1 μmol/dm^3

[2] = Stability, conditional stability and selectivity constants and pM value for gadolinium; format: physicochemical; conditions: for log K′sel: conditional stability constant (K′Sel); for log K′sel / {log KGdL(PH 7.4)} / [log Ksel(Gd/Ca)] / [log Ksel(Gd/Cu)] / [log Ksel(Gd/Zn)]: 25° C., μ = 0.10M (KCl); for pGd: pM = −log[Mn+] free at pH 7.4, [Mn+] total = 1 μmol/dm3, [L] total = 1.1 μmol/dm3; for [log Ksel(Gd/Ca)]: selectivity constant Gd over Ca; for [log Ksel(Gd/Cu)]: selectivity constant Gd over Cu; for [log Ksel(Gd/Zn)]: selectivity constant Gd over Zn; for [GdL]/[Gd][L]: stability constant, log K (25° C., μ = 0.10M (KCl))
Text: as §1, §2
[M]=1.0 μmol/dm^3, [L]=1.1 μmol/dm^3

[3] = Measurement of protonation equilibrium constants (KiH) of the ligands; conditions: for [H2L]/[HL][H] / [H3L]/[H2L][H] / [H5L][H4L][H] / [HL]/[L][H]: protonation equilibrium constant, log K (25° C., μ = 0.10M (KCl)); for ΣpKa: 25° C., μ = 0.10M (KCl)
Text: The protonation equilibrium constant (KiH) can be defined by the equation of KiH═[HiL]/[Hi-1L][H^+], wherein HiL is a protonated ligand (i=1, 2, . . . ).

[4] = Stability constant and pM value for calcium; format: physicochemical; conditions: for {log KCaL(PH 7.4)}: 25° C., μ = 0.10M (KCl); for pCa: pM = −log[Mn+] free at pH 7.4, [Mn+] total = 1 μmol/dm3, [L] total = 1.1 μmol/dm3; for [CaL]/[Ca][L]: stability constant, log K (25° C., μ = 0.10M (KCl))
Text: as §1, §2
[M]=1.0 μmol/dm^3, [L]=1.1 μmol/dm^3

[5] = Stability constant and pM value for zinc; format: physicochemical; conditions: for {log KZnL(pH 7.4)}: 25° C., μ = 0.10M (KCl); for pZn: pM = −log[Mn+] free at pH 7.4, [Mn+] total = 1 μmol/dm3, [L] total = 1.1 μmol/dm3; for [ZnL]/[Zn][L]: stability constant, log K (25° C., μ = 0.10M (KCl))
Text: as §1, §2
[M]=1.0 μmol/dm^3, [L]=1.1 μmol/dm^3

[6] = 20 MHz, 298 K; cited from earlier work
[7] = Measurement of self-relaxation rate (relaxivity) R1 at 1.5 T (64 MHz); format: physicochemical; conditions: inverse recovery method
Procedure: Thus, the self-relaxation rate is a factor that determines the efficiency of contrast agent in magnetic resonance imaging. T1 (relaxation time) measurements were carried out using an inverse recovery method with a variable […] (TI) at 1.5 T (64 MHz). The magnetic resonance (MR) images were acquired at 35 different T1 values ranging from 50 to 1750 msec. T1 was obtained from the non-linear least square fit of the signal intensity measured at each TI value. Relaxivity (R1) was then calculated as an inverse of relaxation time per mM.

| Compound | {log KCuL(pH 7.4)} [1] | pCu [1] | [CuL]/[Cu][L] [1] | log K′sel [2] | {log KGdL(PH 7.4)} [2] | pGd [2] | [log Ksel(Gd/Ca)] [2] | [log Ksel(Gd/Cu)] [2] | [log Ksel(Gd/Zn)] [2] | [GdL]/[Gd][L] [2] | [H2L]/[HL][H] [3] | [H3L]/[H2L][H] [3] | [HL]/[L][H] [3] | {log KCaL(PH 7.4)} [4] | pCa [4] | [CaL]/[Ca][L] [4] | {log KZnL(pH 7.4)} [5] | pZn [5] | [ZnL]/[Zn][L] [5] | R1 [7] | also measured |
| --- | --- | --- | --- | --- | --- | --- | --- | --- | --- | --- | --- | --- | --- | --- | --- | --- | --- | --- | --- | --- | --- |
| O=C(O)CN(CCN(CC(=O)O)CC(=O)NC(Cc1cnc[nH]1)C(=O)O)CCN(CC(=O)O)CC(=O)NC(Cc1cnc[nH]1)C(=O)O (stereo not drawn) [Complex L1, DTPA-bis-amide-histidine] | 8.42 | 7.42 | 10.98 | 19.59 | 17.03 | 16.03 | 12.73 | 8.66 | 8.66 | 19.59 | 7.59 | 6.52 | 9.52 | 4.30 | 3.30 | 6.86 | 8.37 | 7.37 | 10.93 | – | [H5L][H4L][H] [3]: 3.82 |
| O=C(O)CC(NC(=O)CN(CCN(CCN(CC(=O)O)CC(=O)NC(CC(=O)O)C(=O)O)CC(=O)O)CC(=O)O)C(=O)O (stereo not drawn) [Complex L2, DTPA-bis-amide-aspartic acid] | 8.59 | 7.59 | 14.78 | 10.74 | 14.93 | 13.98 | 10.92 | 6.34 | 6.45 | 21.12 | 9.42 | 5.92 | 11.55 | 4.01 | 30.1 | 10.18 | 8.48 | 7.48 | 14.67 | – | ΣpKa [3]: 28.93; [H5L][H4L][H] [3]: 2.04 |
| CNC[C@H](O)[C@@H](O)[C@H](O)[C@H](O)CO.CNC[C@H](O)[C@@H](O)[C@H](O)[C@H](O)CO.O=C([O-])CN(CCN(CC(=O)[O-])CC(=O)O)CCN(CC(=O)[O-])CC(=O)O.[Gd+3] [Magnevist, (N-Me-glucamine)2[Gd(DTPA)(H2O)]] | – | – | – | – | – | – | – | – | – | – | – | – | – | – | – | – | – | – | – | – | self-relaxation rate [6]: approximately 4.7 mM^−1s^−1 |
| CNC(=O)CN(CCN(CCN(CC(=O)[O-])CC(=O)NC)CC(=O)[O-])CC(=O)[O-].[Gd+3] [Omniscan, [Gd(DTPA-bismethylamide)(H2O)], reference compound] | 11.06 | 10.05 | 13.03 | 9.03 | 14.84 | 13.88 | 9.68 | 3.82 | 4.81 | 16.85 | 4.38 | 3.31 | 9.37 | 5.11 | 4.19 | 7.17 | 10.02 | 9.06 | 12.04 | 3.3 ± 0.03 mM⁻¹ s⁻¹ | ΣpKa [3]: 17.06; self-relaxation rate [6]: 4400 M⁻¹ s⁻¹ |
| O.O=C([O-])CN(CCN(CC(=O)[O-])CC(=O)NC(Cc1cnc[nH]1)C(=O)O)CCN(CC(=O)[O-])CC(=O)NC(Cc1cnc[nH]1)C(=O)O.[Gd+3] (stereo not drawn) [[Gd(L1)H2O]] | – | – | – | – | – | – | – | – | – | – | – | – | – | – | – | – | – | – | – | 5.9 ± 0.03 mM⁻¹ s⁻¹ | – |
| O.O=C([O-])CN(CCN(CC(=O)[O-])CC(=O)NC(CC(=O)O)C(=O)O)CCN(CC(=O)[O-])CC(=O)NC(CC(=O)O)C(=O)O.[Gd+3] (stereo not drawn) [[Gd(L2)H2O]] | – | – | – | – | – | – | – | – | – | – | – | – | – | – | – | – | – | – | – | 6.9 ± 0.04 mM⁻¹ s⁻¹ | – |
